Experimental data: patent US20250296909A1, “NOVEL BENZENE DERIVATIVE AND IMMUNOSUPPRESSION-RELATED USE THEREOF” (PROVIBIO CO., LTD., priority 2021, published 2025)
Like-named read-outs stand apart in the source and are kept apart here.

How the values were obtained:
spleen T cells = experiment: T cell proliferation inhibition (CFSE, FACS), CD3/CD28-activated spleen T cells; format: cell-based, C57BL/6 mice; conditions: Mus musculus, T-cell, read-out: Proliferation inhibition rate (%)
Experimental: To investigate whether the compounds obtained in the Preparation Example have an inhibitory effect on T cell proliferation, the T cell proliferation was determined ex vivo using the fluorescent dye carboxyfluorescein diacetate succinimidyl ester (CFSE), which binds to intracellular molecules by covalent bonds.
Spleens were harvested and minced from C57BL/6 mice at 7 weeks of age, and then single cells were isolated using a strainer (40 μm pore size, SPL). Red blood cells were removed using ACK (Ammonium-Chloride-Potassium) lysis buffer to isolate only leukocytes. Subsequently, CD90.2 microbeads (130-121-278, Miltenyi Biotech.) were added, and subjected to react at 4° C. for 20 minutes. After that, spleen T cells were isolated using a MACS Magnetic Stand and LS column. The isolated T cells from the spleen were resuspended in 1 mL of Free media (RPMI-1640+200 U/mL penicillin+200 μg/mL streptomycin), followed by the addition of 0.3 μL of CFSE (10 mM), and reacted at 37° C. for 5 minutes. Subsequently, 10 mL of Free media was added to stop the reaction, and the cells were centrifuged to obtain the cell pellet. RPMI 1640 medium containing 10% FBS, 100 U/mL penicillin, and 100 μg/mL streptomycin was added to suspend the cells, and 2×10^5 cells per well were seeded into a 96-well plate and T cells were activated by treatment with CD3 and CD28 antibodies (each at 0.5 μg/mL).
The compound diluted in DMSO was treated in triplicate at concentrations of 10 μM, 30 μM, and 50 μM, respectively. After incubation at 37° C. with 5% CO2 for 3 days, cell proliferation levels were determined using a FACS Canto machine.
In the FACS graph of FIG. 1, the y-axis represents the quantity (number) of cells, while the x-axis represents the fluorescence level of the cells. […] This reduction in CFSE fluorescence results in a leftward shift along the x-axis in the graph. This indicates cell proliferation.
To collectively indicate the proliferation inhibition rate for the experimental results, the relative value of the proliferation amount after compound administration to the proliferation amount after CD3/CD28+DMSO administration was calculated. Subsequently, it was converted into an inhibition amount and expressed as a percentage, thereby determining the proliferation inhibition rate. Specifically, the proliferation inhibition rate was calculated as follows: […]

[1] = tested on: T lymphocyte cell line Jurkat E6-1; experiment: Cytotoxicity experiment (CCK-8, relative cell survival); format: cell-based; conditions: 24 hours, untreated cells = 100%
Experimental: To evaluate the cytotoxicity of the compound according to the present invention, the following experiment was conducted.
The T lymphocyte cell line Jurkat E6-1, purchased from the Korean Cell Line Bank, was cultured in RPMI-1640 medium comprising 10% FBS, 100 U/mL penicillin, and 100 μg/mL streptomycin. After culturing, the cells were harvested and centrifuged at 1,300 rpm for 5 minutes. After removal of the supernatant, the cells were resuspended in the same medium at a concentration of approximately 2.2×10^5 cells/mL, and 90 μL of the cell suspension was distributed per well into a 96-well plate (Costar 96 well cell culture plate, Corning). After treating 10 μL of each compound at different concentrations onto the respective wells of the plate, it was cultured for 24 hours at 37° C. in a 5% CO2 incubator. Subsequently, 10 μL of CCK-8 was added to each well, and it was cultured again for 2 hours at 37° C. in a 5% CO2 incubator. Absorbance was then measured at 450 nm to determine the relative cell survival rate compared to untreated cells, as shown in Table 4.
The values listed in Table 4 represent the relative cell survival rates in the groups treated with each compound at different concentrations, with the cell survival rate of untreated cells set as 100%.

[2] = 72 h, Table 2, 3 days, relative to CD3/CD28+DMSO
[3] = Table 3 (compounds not belonging to Formula 1)

Row | SMILES | inhibition at 10 µM (spleen T cells; [2]) [%] | inhibition at 30 µM (spleen T cells; [2]) [%] | inhibition at 50 µM (spleen T cells; [2]) [%] | Relative cell survival rate (%) ([1]; 10 μM) | Relative cell survival rate (%) ([1]; 20 μM) | Relative cell survival rate (%) ([1]; 30 μM) | Relative cell survival rate (%) ([1]; 50 μM) | inhibition at 10 µM (spleen T cells; [3]) [%] | inhibition at 30 µM (spleen T cells; [3]) [%] | inhibition at 50 µM (spleen T cells; [3]) [%]
1 | CCCCCCCCCCCCNC(=O)c1ccccc1-c1ccc(C)cc1 [Compound 27] | 62 | 96 | 100 | 109 | 77 | 71 | 63 | – | – | –
2 | CCCCCCCCCCCCNC(=O)c1ccc(F)c(F)c1F [Compound 55] | 52 | 82 | 95 | 115 | 110 | 108 | 105 | – | – | –
3 | CCCCCCCCCCCCNC(=O)c1cccnc1OC [Compound 32] | 12 | 42 | 54 | – | – | – | – | – | – | –
4 | CCCCCCCCNCCCNC(=O)c1nccnc1Cl [Compound 82] | 60 | 80 | 85 | 95 | 90 | 97 | 88 | – | – | –
5 | CCCCCCCCCCCCNC(=O)c1nccc2ccccc12 [Compound 20] | – | – | – | 113 | 108 | 107 | 105 | – | – | –
6 | CCCCCCCCCCCCNC(=O)c1cccnc1O [Compound 70] | 29 | 78 | 98 | 119 | 122 | 124 | 125 | – | – | –
7 | CCCCCCCCCCCCNC(=O)c1ccccc1C(=O)c1ccc(Cl)cc1 [Compound 16] | 0 | 100 | 100 | 121 | 101 | 92 | 85 | – | – | –
8 | CCCCCC(=O)Nc1cccc(CNC(=O)c2ccccc2Br)c1 [Compound 49] | – | – | – | 98 | 98 | 98 | 98 | – | – | –
9 | CCCCCCCCCCC(CNCc1ccccc1Br)Cc1ccccc1Br (stereo not drawn) [Compound 44] | – | – | – | 100 | 98 | 94 | 93 | – | – | –
10 | CCCCCCCCCCCCNC(=O)c1ccncc1Cl [Compound 12] | 5 | 38 | 99 | 100 | 92 | 83 | 79 | – | – | –
11 | CCCCCCCCCCCCNC(=O)c1cccc2ccccc12 [Compound 18] | – | – | – | 102 | 101 | 99 | 99 | – | – | –
12 | CCCCCC(=O)Nc1ccc(CNC(=O)c2ccccc2Br)cc1 [Compound 47] | – | – | – | 98 | 97 | 97 | 96 | – | – | –
13 | Cc1ccccc1NC(=O)c1ccccc1Br [Compound 2] | – | – | – | – | – | – | – | 11 | 10 | 11
14 | Cc1ccccc1NC(=O)c1ccccc1F [Compound 3] | – | – | – | – | – | – | – | 9 | 15 | 18
15 | CCCCCC(=O)Nc1ccccc1CNC(=O)c1ccccc1Br [Compound 48] | – | – | – | 100 | 99 | 99 | 98 | – | – | –
16 | CCCCCCCCCCCCNC(=O)c1ccnc(C)c1 [Compound 15] | 10 | 35 | 90 | – | – | – | – | – | – | –
